Assay results taken from patent US11292801B2, “Calpain modulators and therapeutic uses thereof” (Blade Therapeutics, Inc., priority 2016, dated 2022).

Key:
[1] = target: T1, Human Calpain 9/NS1 (Homo sapiens, UniProt O14815); assay: Biochemical inhibition of calpain 9, continuous fluorescence (FRET substrate) assay; conditions: mean, read-out: Human Calpain 9/NS1 IC50 (nM)_MEAN
T1 sequence (O14815 1-690): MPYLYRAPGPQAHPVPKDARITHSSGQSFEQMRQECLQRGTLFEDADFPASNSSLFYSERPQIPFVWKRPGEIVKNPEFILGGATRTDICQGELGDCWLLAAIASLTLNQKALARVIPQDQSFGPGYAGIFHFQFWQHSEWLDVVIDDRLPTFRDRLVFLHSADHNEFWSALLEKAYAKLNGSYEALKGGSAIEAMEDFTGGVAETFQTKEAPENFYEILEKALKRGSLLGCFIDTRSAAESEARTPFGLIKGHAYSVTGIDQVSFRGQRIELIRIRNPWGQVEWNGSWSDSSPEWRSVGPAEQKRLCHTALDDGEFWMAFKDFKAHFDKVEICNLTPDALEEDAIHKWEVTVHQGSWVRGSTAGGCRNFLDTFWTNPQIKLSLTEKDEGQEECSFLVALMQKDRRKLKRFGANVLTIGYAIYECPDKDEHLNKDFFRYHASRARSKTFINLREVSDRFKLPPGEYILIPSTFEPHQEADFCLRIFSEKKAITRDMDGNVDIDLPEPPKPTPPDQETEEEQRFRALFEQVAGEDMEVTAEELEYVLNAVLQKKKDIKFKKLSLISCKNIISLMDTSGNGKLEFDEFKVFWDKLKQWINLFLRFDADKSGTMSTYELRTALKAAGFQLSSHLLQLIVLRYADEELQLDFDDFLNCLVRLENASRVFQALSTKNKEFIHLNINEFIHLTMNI
T1 sequence (P04632 1-268 partner): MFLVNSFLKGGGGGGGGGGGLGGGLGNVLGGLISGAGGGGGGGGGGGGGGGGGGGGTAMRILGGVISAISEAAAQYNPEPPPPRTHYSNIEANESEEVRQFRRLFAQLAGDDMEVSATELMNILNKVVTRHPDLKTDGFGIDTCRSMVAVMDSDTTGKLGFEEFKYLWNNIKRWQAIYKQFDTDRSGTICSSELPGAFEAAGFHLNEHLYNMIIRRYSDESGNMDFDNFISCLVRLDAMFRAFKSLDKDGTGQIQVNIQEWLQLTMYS
Method: (§1) Calpain 1, 2, and 9 activity and inhibition thereof are assessed by means of a continuous fluorescence assay. The SensoLyte 520 Calpain substrate (Anaspec Inc) is optimized for detecting calpain activity. This substrate contains a novel internally quenched 5-FAM/QXL™ 520 FRET pair. Calpains 1, 2, and 9 cleave the FRET substrate into two separate fragments resulting in an increase of 5-FAM fluorescence that is proportional to calpain activity.
(§2) Assays are typically setup in black 384-well plates using automated liquid handling as follows. Calpain assay base buffer typically contains 50 mM Tris, pH˜7.5, 100 mM NaCl and 1 mM DTT. Inhibitors are serially diluted in DMSO and used to setup 2× mixtures with calpains in the aforementioned buffer. After incubation at ambient temperature (25C), the reaction is initiated by adding a 2× mix of the fluorescent peptide substrate and CaCl2) (required for in-situ calpain activation) in the same buffer. Reaction progress curve data are typically collected for 10 min using excitation/emission wavelengths of 490 nm/520 nm on SpectraMax i3× or the FLIPR-Tetra plate readers (Molecular Devices Inc). Reaction rates were calculated from progress curve slopes typically over 1-5 min. Dose response curves (rate vs. log inhibitor concentration) were typically fit to a 4-parameter logistic function to extract IC50 values.

[2] = target: T2, Human Calpain 1/NS1 (Homo sapiens, UniProt P07384); assay: Biochemical inhibition of calpain 1, continuous fluorescence (FRET substrate) assay; conditions: mean, read-out: Human Calpain 1/NS1 IC50 (nM)_MEAN
T2 sequence (P07384 1-714): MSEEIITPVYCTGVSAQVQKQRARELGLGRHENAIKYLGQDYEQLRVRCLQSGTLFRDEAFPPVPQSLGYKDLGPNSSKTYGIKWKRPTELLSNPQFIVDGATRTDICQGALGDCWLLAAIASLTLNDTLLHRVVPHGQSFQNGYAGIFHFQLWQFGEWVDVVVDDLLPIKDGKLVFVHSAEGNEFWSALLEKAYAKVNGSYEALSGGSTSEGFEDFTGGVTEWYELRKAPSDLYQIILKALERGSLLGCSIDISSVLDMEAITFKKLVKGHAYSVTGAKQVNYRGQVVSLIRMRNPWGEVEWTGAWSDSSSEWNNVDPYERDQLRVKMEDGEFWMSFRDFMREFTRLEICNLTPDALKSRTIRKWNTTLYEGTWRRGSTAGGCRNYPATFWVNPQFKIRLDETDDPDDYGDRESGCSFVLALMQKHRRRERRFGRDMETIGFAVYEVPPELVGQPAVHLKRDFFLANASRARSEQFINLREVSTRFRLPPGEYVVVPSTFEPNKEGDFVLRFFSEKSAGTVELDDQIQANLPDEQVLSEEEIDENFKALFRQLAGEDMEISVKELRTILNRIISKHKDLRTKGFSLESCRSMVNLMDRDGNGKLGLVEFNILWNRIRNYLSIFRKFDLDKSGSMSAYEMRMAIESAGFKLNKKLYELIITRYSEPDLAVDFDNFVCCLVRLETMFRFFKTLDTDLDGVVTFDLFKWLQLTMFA
T2 sequence (P04632 1-268 partner): T1 sequence (P04632 1-268 partner)
Method: as §1, §2

[3] = target: T3, Human Calpain 2/NS1 (Homo sapiens, UniProt P17655); assay: Biochemical inhibition of calpain 2, continuous fluorescence (FRET substrate) assay; conditions: mean, read-out: Human Calpain 2/NS1 IC50 (nM)_MEAN
T3 sequence (P17655 1-700): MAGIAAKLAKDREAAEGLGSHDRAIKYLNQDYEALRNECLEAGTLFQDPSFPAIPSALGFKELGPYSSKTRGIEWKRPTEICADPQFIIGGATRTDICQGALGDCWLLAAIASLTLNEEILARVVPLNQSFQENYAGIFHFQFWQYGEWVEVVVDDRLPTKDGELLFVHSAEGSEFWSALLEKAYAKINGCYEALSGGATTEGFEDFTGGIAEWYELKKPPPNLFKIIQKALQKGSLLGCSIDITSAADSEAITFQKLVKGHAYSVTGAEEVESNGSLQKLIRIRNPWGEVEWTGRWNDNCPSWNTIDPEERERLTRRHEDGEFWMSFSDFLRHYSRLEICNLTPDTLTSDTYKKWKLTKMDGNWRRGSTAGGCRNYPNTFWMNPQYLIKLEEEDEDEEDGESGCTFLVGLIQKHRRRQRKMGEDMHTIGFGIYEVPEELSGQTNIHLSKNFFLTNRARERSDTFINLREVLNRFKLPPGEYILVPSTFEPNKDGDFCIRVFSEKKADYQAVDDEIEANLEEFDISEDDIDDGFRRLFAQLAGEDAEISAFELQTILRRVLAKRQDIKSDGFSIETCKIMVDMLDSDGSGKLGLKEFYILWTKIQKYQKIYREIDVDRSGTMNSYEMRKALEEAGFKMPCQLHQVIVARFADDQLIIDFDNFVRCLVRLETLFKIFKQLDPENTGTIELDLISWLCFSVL
T3 sequence (P04632 1-268 partner): T1 sequence (P04632 1-268 partner)
Method: as §1, §2

SMILES | IC50 [1] | IC50 [2] | IC50 [3]
CCNC(=O)C(=O)[C@@H]1CCCCCCCCCc2ccccc2C(=O)N1 [Compound 27, (S)—N-ethyl-2-oxo-2-(1-oxo-1,2,3,4,5,6,7,8,9,10,11,12-dodecahydrobenzo[c][1]azacyclotetradecin-3-yl)acetamide] | > 10000 nM | > 10000 nM | > 10000 nM
O=C(NCc1ccccc1)C(=O)C1CCCCOCCOCc2ccccc2C(=O)N1 (stereo not drawn) [Compound 97, N-benzyl-2-oxo-2-(12-oxo-1,3,4,6,7,8,9,10,11,12-decahydrobenzo[f][1,4]dioxa[9]azacyclotetradecin-10-yl)acetamide] | < 3000 nM | > 10000 nM | > 10000 nM
CCNC(=O)C(=O)[C@@H]1Cc2ccc(cc2)OCCCCOc2cccc(c2)-c2ccn(n2)-c2ncccc2C(=O)N1 [Compound 45, N-ethyl-2-oxo-2-((6S,E)-4-oxo-2^1H-9,14-dioxa-5-aza-3(2,3)-pyridina-2(3,1)-pyrazola-1(1,3),8(1,4)-dibenzenacyclotetradecaphane-6-yl)acetamide] | < 3000 nM | < 3000 nM | < 3000 nM
O=C[C@@H]1CC=CCOCCCOCc2ccccc2C(=O)N1 [Compound 11, (S)-13-Oxo-1,4,5,7,10,11,12,13-octahydro-3h-benzo[g][1,5]dioxa[10]aza-cyclopentadecine-11-carbaldehyde] | < 3000 nM | 3000 to 10000 nM | < 3000 nM
O=C[C@@H]1CC=CCCCCOc2ccccc2C(=O)N1 (mixture of isomers) [Compound 5, (S)-11-Oxo-2,3,4,5,8,9,10,11-octahydrobenzo[b][1]oxa[5]azacyclotridecine-9-carbaldehyde] | < 3000 nM | > 10000 nM | 3000 to 10000 nM
C[C@H](NC(=O)C(=O)C1CCCCOCCOCc2ccccc2C(=O)N1)c1cccnc1 (stereo partly drawn) [Compound 126, 2-Oxo-2-(12-oxo-1,3,4,6,7,8,9,10,11,12-decahydrobenzo[f][1,4]dioxa[9]aza-cyclotetradecin-10-yl)-N—((S)-1-(pyridin-3-yl)ethyl)acetamide] | > 10000 nM | > 10000 nM | > 10000 nM
CCOC(=O)CCNC(=O)C(=O)[C@@H]1CCCCOCCOCc2ccccc2C(=O)N1 [Compound 55, Ethyl (S)-3-(2-oxo-2-(12-oxo-1,3,4,6,7,8,9,10,11,12-decahydrobenzo[f][1,4]dioxa[9]azacyclotetradecin-10-yl)acetamido)propanoate] | 3000 to 10000 nM | > 10000 nM | 3000 to 10000 nM
O=C[C@@H]1CCCCCOc2ccnc(c2)-c2ccccc2C(=O)N1 [Compound 149, (S)-3-oxo-11-oxa-4-aza-1(2,4)-pyridina-2(1,2)-benzenacycloundecaphane-5-carbaldehyde] | < 3000 nM | < 3000 nM | < 3000 nM
O=C[C@@H]1CC=CCOCCOc2ccccc2C(=O)N1 [Compound 18, (S)-11-Oxo-2,3,8,9,10,11-hexahydro-5h-benzo[e][1,4]dioxa[8]azacyclotridecine-9-carbaldehyde] | 3000 to 10000 nM | > 10000 nM | > 10000 nM
CCCCc1ccc(CNC(=O)C(=O)C2CCCCOCCOCc3ccccc3C(=O)N2)cc1 (stereo not drawn) [Compound 112, N-(4-butylbenzyl)-2-oxo-2-(12-oxo-1,3,4,6,7,8,9,10,11,12-decahydrobenzo[f][1,4]dioxa[9]azacyclotetradecin-10-yl)acetamide] | < 3000 nM | > 10000 nM | > 10000 nM
O=C[C@@H]1CCCCOCCOc2ccccc2C(=O)N1 [Compound 19, (S)-11-Oxo-2,3,6,7,8,9,10,11-octahydro-5h-benzo[e][1,4]dioxa[8]azacyclotridecine-9-carbaldehyde] | 3000 to 10000 nM | > 10000 nM | 3000 to 10000 nM
O=C[C@@H]1CC=CCCOc2ccnc(n2)-c2ccccc2C(=O)N1 [Compound 39, (S)-3-Oxo-11-oxa-4-aza-1(2,4)-pyrimidina-2(1,2)-benzenacyclo undecaphan-7-ene-5-carbaldehyde] | < 3000 nM | 3000 to 10000 nM | < 3000 nM
O=C[C@@H]1Cc2cccc(c2)CCCOCc2ccccc2C(=O)N1 [Compound 32, (S)-2-Oxo-10-oxa-3-aza-1(1,2),6(1,3)-dibenzena-cycloundecaphane-4-carbaldehyde] | < 3000 nM | < 3000 nM | < 3000 nM
C/C1=C\C[C@@H](C(=O)C(N)=O)NC(=O)c2cc(C)nn2-c2cccc(c2)OCC1 [Compound 145, (S,E)-2-(1^3,6-dimethyl-11-oxo-1H-3-oxa-10-aza-1(1,5)-pyrazola-2(1,3)-benzenacycloundecaphan-6-en-9-yl)-2-oxoacetamide] | < 3000 nM | < 3000 nM | < 3000 nM
O=C(NC1CC1)C(=O)[C@@H]1Cc2ccc(cc2)OC/C=C/COc2cccc(c2)-c2ccn(n2)-c2ncccc2C(=O)N1 [Compound 70, N-cyclopropyl-2-oxo-2-((2^2E,6S,11E)-4-oxo-2^1H-9,14-dioxa-5-aza-3(2,3)-pyridina-2(3,1)-pyrazola-1(1,3),8(1,4)-dibenzenacyclotetradecaphan-11-en-6-yl)acetamide] | < 3000 nM | < 3000 nM | < 3000 nM
CC(C)NC(=O)C(=O)[C@@H]1C/C=C/COCCOCc2ccccc2C(=O)N1 [Compound 62, (S,E)-N-isopropyl-2-oxo-2-(12-oxo-1,3,4,6,9,10,11,12-octahydrobenzo[f][1,4]dioxa[9]azacyclotetradecin-10-yl)acetamide] | > 10000 nM | > 10000 nM | > 10000 nM
